Results on 43 sequences are retold here after the supplement of paper PMC11208160.

The nature of this data set: recombinant barcode read abundance after kanamycin selection (control-corrected) (log10(CPM+1)); higher = more efficient recombination; sequences stand for … in AGTGCAGAGAAAATCGGCCAGTTTTCTCTGCCTGCAGTCCGCATGCCGT…ATTTATGCAGCGGACTGCCTTTCTCCCAAAGTGATAAACCGGACAGTATCATGGACCGGTTTTCCCGGTAATCCGTATTTGCAAGGTTGGTTTCACT; site = the 11-nt target. In short, it runs like this: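 IS621 bridge RNA target-binding loops were paired with targets in a pooled library tested in E. coli. After co-electroporation with a donor plasmid, cells were plated in two replicates on chloramphenicol/ampicillin LB agar (control) and on chloramphenicol/ampicillin/kanamycin carrying 0.1 mM IPTG. Barcodes at recombinant junctions were counted as counts per million, averaged and control-corrected to give recombination efficiency. Values are log10(CPM+1).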
As for “GTCGCCCTTTGGGTTCTAACCTGTTGCTAAG [GTCGCCCCTTA_LTGcore_TT_RTGcore_CT] (site GTCGCCCCTTA) (LTG core: TT, RTG core: CT)”, the “recombinant barcode read abundance (log10)” value is 0.137.
On to “TAAGAATAATGGGTTCTAACCTGTTGCCTAG [TAAGAATCTAG_LTGcore_AA_RTGcore_CT] (site TAAGAATCTAG) (LTG core: AA, RTG core: CT)”, for which the “recombinant barcode read abundance (log10)” value worked out at 0.232.
With “TAAGAATATTGGGTTCTAACCTGTTGCCTAG [TAAGAATCTAG_LTGcore_AT_RTGcore_CT] (site TAAGAATCTAG) (LTG core: AT, RTG core: CT)” the figure was 0.124; with “TAAGAATCATGGGTTCTAACCTGTTGCCTTG [TAAGAATCTAG_LTGcore_CA_RTGcore_CA] (site TAAGAATCTAG) (LTG core: CA, RTG core: CA)”, 1.03.
In the case of “TAAGAATCGTGGGTTCTAACCTGTTGCCTCG [TAAGAATCTAG_LTGcore_CG_RTGcore_CG] (site TAAGAATCTAG) (LTG core: CG, RTG core: CG)”, the “recombinant barcode read abundance (log10)” value came out at 0.0781.
With “TAAGAATCTTGGGTTCTAACCTGTTGCCTAG [TAAGAATCTAG_LTGcore_CT_RTGcore_CT] (site TAAGAATCTAG) (LTG core: CT, RTG core: CT)”, the “recombinant barcode read abundance (log10)” value is 1.3.
The value for “TAAGAATCTTGGGTTCTAACCTGTTGCCTAT [TAAGAATCTAG_LTGcore_CT_RTGcore_AT] (site TAAGAATCTAG) (LTG core: CT, RTG core: AT)” was 0.0438.
With “TAAGAATCTTGGGTTCTAACCTGTTGCCTTA [TAAGAATCTAG_LTGcore_CT_RTGcore_TA] (site TAAGAATCTAG) (LTG core: CT, RTG core: TA)” the figure was 0.138; with “TAAGAATCTTGGGTTCTAACCTGTTGCCTTC [TAAGAATCTAG_LTGcore_CT_RTGcore_GA] (site TAAGAATCTAG) (LTG core: CT, RTG core: GA)”, 0.243; with “TAAGAATGATGGGTTCTAACCTGTTGCCTTC [TAAGAATCTAG_LTGcore_GA_RTGcore_GA] (site TAAGAATCTAG) (LTG core: GA, RTG core: GA)”, 0.176.
Turning to “TAAGAATTGTGGGTTCTAACCTGTTGCCTAG [TAAGAATCTAG_LTGcore_TG_RTGcore_CT] (site TAAGAATCTAG) (LTG core: TG, RTG core: CT)”, the “recombinant barcode read abundance (log10)” value worked out at 0.153.
With “TAAGAATTTTGGGTTCTAACCTGTTGCCTAA [TAAGAATCTAG_LTGcore_TT_RTGcore_TT] (site TAAGAATCTAG) (LTG core: TT, RTG core: TT)”, the “recombinant barcode read abundance (log10)” value is 0.156.
The value for “TAGAGGGATTGGGTTCTAACCTGTTGCGGAT [TAGAGGGCTCC_LTGcore_AT_RTGcore_AT] (site TAGAGGGCTCC) (LTG core: AT, RTG core: AT)” was 0.237; that for “TAGAGGGCCTGGGTTCTAACCTGTTGCGGAG [TAGAGGGCTCC_LTGcore_CC_RTGcore_CT] (site TAGAGGGCTCC) (LTG core: CC, RTG core: CT)” was 2.4; that for “TAGAGGGCTTGGGTTCTAACCTGTTGCGGAT [TAGAGGGCTCC_LTGcore_CT_RTGcore_AT] (site TAGAGGGCTCC) (LTG core: CT, RTG core: AT)” was 0.779.
With “TAGAGGGCTTGGGTTCTAACCTGTTGCGGCA [TAGAGGGCTCC_LTGcore_CT_RTGcore_TG] (site TAGAGGGCTCC) (LTG core: CT, RTG core: TG)” the figure was 1.66; with “TAGAGGGGCTGGGTTCTAACCTGTTGCGGGC [TAGAGGGCTCC_LTGcore_GC_RTGcore_GC] (site TAGAGGGCTCC) (LTG core: GC, RTG core: GC)”, 0.0588; with “TAGAGGGGTTGGGTTCTAACCTGTTGCGGAC [TAGAGGGCTCC_LTGcore_GT_RTGcore_GT] (site TAGAGGGCTCC) (LTG core: GT, RTG core: GT)”, 0.189.
The value for “TAGAGGGTATGGGTTCTAACCTGTTGCGGAG [TAGAGGGCTCC_LTGcore_TA_RTGcore_CT] (site TAGAGGGCTCC) (LTG core: TA, RTG core: CT)” was 0.204; that for “TAGAGGGTATGGGTTCTAACCTGTTGCGGTA [TAGAGGGCTCC_LTGcore_TA_RTGcore_TA] (site TAGAGGGCTCC) (LTG core: TA, RTG core: TA)” was 0.481.
In the case of “TCGCGACACTGGGTTCTAACCTGTTGCCGGT [TCGCGACCTCG_LTGcore_AC_RTGcore_AC] (site TCGCGACCTCG) (LTG core: AC, RTG core: AC)”, the “recombinant barcode read abundance (log10)” value was found to be 0.102.
In the case of “TCGCGACAGTGGGTTCTAACCTGTTGCCGCT [TCGCGACCTCG_LTGcore_AG_RTGcore_AG] (site TCGCGACCTCG) (LTG core: AG, RTG core: AG)”, the “recombinant barcode read abundance (log10)” value is 0.128.
With “TCGCGACATTGGGTTCTAACCTGTTGCCGAG [TCGCGACCTCG_LTGcore_AT_RTGcore_CT] (site TCGCGACCTCG) (LTG core: AT, RTG core: CT)” the figure was 0.0137.
Turning to “TCGCGACCATGGGTTCTAACCTGTTGCCGTG [TCGCGACCTCG_LTGcore_CA_RTGcore_CA] (site TCGCGACCTCG) (LTG core: CA, RTG core: CA)”, the “recombinant barcode read abundance (log10)” value amounted to 0.139.
With “TCGCGACCCTGGGTTCTAACCTGTTGCCGGG [TCGCGACCTCG_LTGcore_CC_RTGcore_CC] (site TCGCGACCTCG) (LTG core: CC, RTG core: CC)” the figure was 0.353; with “TCGCGACCTTGGGTTCTAACCTGTTGCCGCC [TCGCGACCTCG_LTGcore_CT_RTGcore_GG] (site TCGCGACCTCG) (LTG core: CT, RTG core: GG)”, 0.0891; with “TCGCGACCTTGGGTTCTAACCTGTTGCCGTT [TCGCGACCTCG_LTGcore_CT_RTGcore_AA] (site TCGCGACCTCG) (LTG core: CT, RTG core: AA)”, 0.0373.
For the sequence “TCGCGACGTTGGGTTCTAACCTGTTGCCGAG [TCGCGACCTCG_LTGcore_GT_RTGcore_CT] (site TCGCGACCTCG) (LTG core: GT, RTG core: CT)”, the “recombinant barcode read abundance (log10)” value was 0.391.
With “TCTACCCACTGGGTTCTAACCTGTTGCTGGT [TCTACCCCTCA_LTGcore_AC_RTGcore_AC] (site TCTACCCCTCA) (LTG core: AC, RTG core: AC)” the figure was 0.045.
With “TCTACCCATTGGGTTCTAACCTGTTGCTGAT [TCTACCCCTCA_LTGcore_AT_RTGcore_AT] (site TCTACCCCTCA) (LTG core: AT, RTG core: AT)” the figure was 0.00785.
The value for “TCTACCCCCTGGGTTCTAACCTGTTGCTGGG [TCTACCCCTCA_LTGcore_CC_RTGcore_CC] (site TCTACCCCTCA) (LTG core: CC, RTG core: CC)” was 0.0201; that for “TCTACCCCTTGGGTTCTAACCTGTTGCTGAA [TCTACCCCTCA_LTGcore_CT_RTGcore_TT] (site TCTACCCCTCA) (LTG core: CT, RTG core: TT)” was 0.241.
In the case of “TCTACCCCTTGGGTTCTAACCTGTTGCTGGG [TCTACCCCTCA_LTGcore_CT_RTGcore_CC] (site TCTACCCCTCA) (LTG core: CT, RTG core: CC)”, the “recombinant barcode read abundance (log10)” value came to 0.28.
As to “TCTACCCCTTGGGTTCTAACCTGTTGCTGTG [TCTACCCCTCA_LTGcore_CT_RTGcore_CA] (site TCTACCCCTCA) (LTG core: CT, RTG core: CA)”, the “recombinant barcode read abundance (log10)” value was 0.182.
With “TCTACCCTGTGGGTTCTAACCTGTTGCTGAG [TCTACCCCTCA_LTGcore_TG_RTGcore_CT] (site TCTACCCCTCA) (LTG core: TG, RTG core: CT)” the figure was 0.0669; with “TCTACCCTGTGGGTTCTAACCTGTTGCTGCA [TCTACCCCTCA_LTGcore_TG_RTGcore_TG] (site TCTACCCCTCA) (LTG core: TG, RTG core: TG)”, 0.0126.
As for “TGATACCATTGGGTTCTAACCTGTTGCGTAT [TGATACCCTAC_LTGcore_AT_RTGcore_AT] (site TGATACCCTAC) (LTG core: AT, RTG core: AT)”, the “recombinant barcode read abundance (log10)” value was found to be 0.0803.
The value for “TGATACCCCTGGGTTCTAACCTGTTGCGTGG [TGATACCCTAC_LTGcore_CC_RTGcore_CC] (site TGATACCCTAC) (LTG core: CC, RTG core: CC)” was 0.351.
The value for “TGATACCCTTGGGTTCTAACCTGTTGCGTGC [TGATACCCTAC_LTGcore_CT_RTGcore_GC] (site TGATACCCTAC) (LTG core: CT, RTG core: GC)” was 1.67; that for “TGATACCCTTGGGTTCTAACCTGTTGCGTGT [TGATACCCTAC_LTGcore_CT_RTGcore_AC] (site TGATACCCTAC) (LTG core: CT, RTG core: AC)” was 0.0827.
The value for “TGATACCCTTGGGTTCTAACCTGTTGCGTTC [TGATACCCTAC_LTGcore_CT_RTGcore_GA] (site TGATACCCTAC) (LTG core: CT, RTG core: GA)” was 0.335.
Regarding “TGATACCCTTGGGTTCTAACCTGTTGCGTTT [TGATACCCTAC_LTGcore_CT_RTGcore_AA] (site TGATACCCTAC) (LTG core: CT, RTG core: AA)”, the “recombinant barcode read abundance (log10)” value is 0.666.
With “TGATACCGCTGGGTTCTAACCTGTTGCGTAG [TGATACCCTAC_LTGcore_GC_RTGcore_CT] (site TGATACCCTAC) (LTG core: GC, RTG core: CT)” the figure was 0.164.
